Values quoted from earlier work in patent US7930948B2, “Device for leaching extraction and assessment” (priority 2007, dated 2011).

How the values were obtained:
[1] = after Mackay et al. 1992
[2] = octanol/water partition coefficient; after Mackay et al. 1992

Compound | Aqueous Solubility [1] [µg/mL] | log(Kow) [2]
c1ccc2ccccc2c1 [Naphthalene] | 34.4 | 
c1ccc2c(c1)-c1cccc3c1c-2cc1ccccc13 [Benzo(b)fluoranthene] |  | 6.50
c1ccc2c(c1)ccc1ccccc12 [Phenanthrene] | 1.29 | 
c1ccc2cc3c(cc2c1)-c1cccc2cccc-3c12 [Benzo(k)fluoranthene] | 0.00081 | 6.84
c1ccc2cc3c(ccc4ccccc43)cc2c1 [Benzo(a)anthracene] |  | 5.91
c1ccc2c(c1)Cc1ccccc1-2 [Fluorene] |  | 4.18
c1ccc2c(c1)cc1ccc3cccc4ccc2c1c34 [Benzo(a)pyren] |  | 6.50
c1ccc2c(c1)ccc1cc3c(ccc4ccccc43)cc12 [Dibenzo(a,h)anthracene] | 0.0005 | 7.19
C1=Cc2cccc3cccc1c23 [Acenaphthylene] |  | 4.07
c1ccc2cc3ccccc3cc2c1 [Anthracene] | 0.073 | 4.54
c1ccc2c(c1)-c1cccc3cccc-2c13 [Fluoranthene] |  | 5.22
Acenaphthene |  | 4.03
c1cc2ccc3ccc4ccc5cccc6c(c1)c2c3c4c56 [Benzo(g,h,i)perylene] | 0.00026 | 6.85
c1ccc2c(c1)-c1ccc3ccc4cccc5cc-2c1c3c45 [Indeno(1,2,3-cd)pyrene] |  | 7.66
